{
  "source": "patent US20070117743A1",
  "about": "“New antitumoral compounds” (priority 2003, published 2007)",
  "assay_type_in_all_cases": "cell-based, human",
  "key": {"[1]": {"test_system": "LoVo-Dox", "assay": "SRB colorimetric assay of cell growth and viability, LoVo-Dox", "conditions": "48 hours exposure", "outline": "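Here, cells grow drug-free for 18 h, then receive sample dilutions from 10 down to 10^−8 μg/mL for 48 h at 37° C. Protein-bound SRB is solubilized in Tris and quantified at 490 nm.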"}, "[2]": {"test_system": "DU-145", "assay": "SRB colorimetric assay of cell growth and viability, DU-145", "conditions": "48 hours exposure"}, "[3]": {"test_system": "SK-MEL-28", "assay": "SRB colorimetric assay of cell growth and viability, SK-MEL-28", "conditions": "48 hours exposure"}, "[4]": {"test_system": "K-562", "assay": "SRB colorimetric assay of cell growth and viability, K-562", "conditions": "48 hours exposure"}, "[5]": {"test_system": "IGROV-1", "assay": "SRB colorimetric assay of cell growth and viability, IGROV-1", "conditions": "48 hours exposure"}, "[6]": {"test_system": "LoVo", "assay": "SRB colorimetric assay of cell growth and viability, LoVo", "conditions": "48 hours exposure"}, "[7]": {"test_system": "HT-29", "assay": "SRB colorimetric assay of cell growth and viability, HT-29", "conditions": "48 hours exposure"}, "[8]": {"test_system": "PANC-1", "assay": "SRB colorimetric assay of cell growth and viability, PANC-1", "conditions": "48 hours exposure"}, "[9]": {"test_system": "A-549", "assay": "SRB colorimetric assay of cell growth and viability, A-549", "conditions": "48 hours exposure"}, "[10]": {"test_system": "SK-BR-3", "assay": "SRB colorimetric assay of cell growth and viability, SK-BR-3", "conditions": "48 hours exposure"}, "[11]": {"test_system": "SK-OV-3", "assay": "SRB colorimetric assay of cell growth and viability, SK-OV-3", "conditions": "48 hours exposure", "source_text": "(§1) The finality of this assay is to interrupt the growth of a “in vitro” tumor cell culture by means a continued exhibition of the cells to the sample to be testing.\n(§2) A colorimetric type of assay, using sulforhodamine B (SRB) reaction has been adapted for a quantitative measurement of cell growth and viability [following the technique described by Philip Skehan, et al. (1990), New colorimetric cytotoxicity assay for anticancer drug screening, J. Natl. Cancer Inst., 82:1107-1112].\n(§3) This form of the assay employs 96 well cell culture microplates of 9 mm diameter (Faircloth, 1988; Mosmann, 1983). Most of the cell lines are obtained from American Type Culture Collection (ATCC) derived from different human cancer types.\n(§4) Cells are maintained in RPMI 1640 10% FBS, supplemented with 0.1 g/l penicillin and 0.1 g/l streptomycin sulfate and then incubated at 37° C., 5% CO2 and 98% humidity. For the experiments, cells were harvested from subconfluent cultures using trypsin and resuspended in fresh medium before plating.\n(§5) Cells are seeded in 96 well microtiter plates, at 5×10^3 cells per well in aliquots of 195 μL medium, and they are allowed to attach to the plate surface by growing in drug free medium for 18 hours. Afterward, samples are added in aliquots of 5 μL in a ranging from 10 to 10^−8 μg/mL, dissolved in DMSO:EtOH:PBS (0.5:0.5:99). After 48 hours exposure, the antitumor effect are measured by the SRB methodology: cells are fixed by adding 50 μL of cold 50% (wt/vol) trichloroacetic acid (TCA) and incubating for 60 minutes at 4° C. Plates are washed with deionized water and dried. One hundred μL of SRB solution (0.4% wt/vol in 1% acetic acid) is added to each microtiter well and incubated for 10 minutes at room temperature. Unbound SRB is removed by washing with 1% acetic acid. Plates are air dried and bound stain is solubilized with Tris buffer. Optical densities are read on a automated spectrophotometric plate reader at a single wavelength of 490 nm.\n(§6) The values for mean+/− SD of data from triplicate wells are calculated. Some parameters for cellular responses can be calculated: GI=growth inhibition, TGI=total growth inhibition (cytostatic effect) and LC=cell killing (cytotoxic effect)."}, "[12]": {"test_system": "LNCaP", "assay": "SRB colorimetric assay of cell growth and viability, LNCaP", "conditions": "48 hours exposure"}, "[13]": {"test_system": "IGROV-ET", "assay": "SRB colorimetric assay of cell growth and viability, IGROV-ET", "conditions": "48 hours exposure"}, "[14]": {"test_system": "HMEC-1", "assay": "SRB colorimetric assay of cell growth and viability, HMEC-1", "conditions": "48 hours exposure", "source_text": "as §1, §2, §3, §4\nas §5, with “Unbound SRB is removed by washing with 1% acetic acid. Plates are air dried and bound stain is solubilized with Tris buffer.” left out\nas §6"}, "[15]": {"assay": "SRB colorimetric assay of cell growth and viability, HMEC-1", "conditions": "human, HMEC-1 cells; 48 hours exposure; read-out: LC50 H-MEC-1", "source_text": "as §1, §2, §3, §4\nas §5, with “Unbound SRB is removed by washing with 1% acetic acid. Plates are air dried and bound stain is solubilized with Tris buffer.” left out\nas §6"}},
  "data": [
    {"smiles": "C/C=C1\\NC(=O)[C@H](Cc2ccccc2)NC(=O)[C@@H](C(C)C)NC(=O)[C@@H]([C@@H](C)CC)NC(=O)[C@H](NC(=O)[C@H](NC(=O)[C@H](CCCCN)NC(=O)[C@H]2CCCN2C(=O)[C@H](NC(=O)[C@@H](NC(=O)[C@@H](NC(=O)[C@H](NC(=O)CCCC(C)C)C(C)C)[C@@H](C)O)C(C)C)C(C)C)[C@@H](C)CC)[C@@H](C)OC(=O)[C@H](C(C)C)NC1=O", "note": "[Compound 5, [Lys^8]-KF]", "values": [
      {"measurement": "GI50", "setting": "[1]", "value": 162, "unit": "nM"},
      {"measurement": "TGI LOVO-DOX", "setting": "[1]", "value": "2.98E−07", "unit": "Molar"},
      {"measurement": "CC50", "setting": "[1]; read-out: LC50 LOVO-DOX", "value": 552, "unit": "nM"},
      {"measurement": "GI50", "setting": "[2]", "value": 18.1, "unit": "nM"},
      {"measurement": "LC50 (concentration causing 50% net cell kill)", "setting": "[2]", "value": 56.9, "unit": "nM"},
      {"measurement": "TGI DU-145", "setting": "[2]", "value": "3.20E−08", "unit": "Molar"},
      {"measurement": "GI50", "setting": "[3]", "value": 811, "unit": "nM"},
      {"measurement": "TGI MEL-28", "setting": "[3]", "value": "1.87E−06", "unit": "Molar"},
      {"measurement": "CC50", "setting": "[3]; read-out: LC50 MEL-28", "value": 4300, "unit": "nM"},
      {"measurement": "GI50", "setting": "[4]", "value": 771, "unit": "nM"},
      {"measurement": "TGI K-562", "setting": "[4]", "value": "1.65E−06", "unit": "Molar"},
      {"measurement": "CC50", "setting": "[4]; read-out: LC50 K-562", "value": 3550, "unit": "nM"},
      {"measurement": "GI50", "setting": "[5]", "value": 183, "unit": "nM"},
      {"measurement": "LC50 (concentration causing 50% net cell killing)", "setting": "[5]", "value": 1230, "unit": "nM"},
      {"measurement": "TGI IGROV", "setting": "[5]", "value": "3.71E−07", "unit": "Molar"},
      {"measurement": "GI50", "setting": "[6]", "value": 155, "unit": "nM"},
      {"measurement": "TGI LOVO", "setting": "[6]", "value": "2.71E−07", "unit": "Molar"},
      {"measurement": "CC50", "setting": "[6]; read-out: LC50 LOVO", "value": 478, "unit": "nM"},
      {"measurement": "TGI HT-29", "setting": "[7]", "value": "2.81E−07", "unit": "Molar"},
      {"measurement": "GI50", "setting": "[7]; read-out: GI50 HT-29", "value": 158, "unit": "nM"},
      {"measurement": "CC50", "setting": "[7]; read-out: LC50 HT-29", "value": 498, "unit": "nM"},
      {"measurement": "GI50", "setting": "[8]", "value": 1140, "unit": "nM"},
      {"measurement": "TGI PANC-1", "setting": "[8]", "value": "2.37E−06", "unit": "Molar"},
      {"measurement": "CC50", "setting": "[8]; read-out: LC50 PANC-1", "value": 4920, "unit": "nM"},
      {"measurement": "TGI A-549", "setting": "[9]", "value": "2.75E−07", "unit": "Molar"},
      {"measurement": "GI50", "setting": "[9]; read-out: GI50 A-549", "value": 129, "unit": "nM"},
      {"measurement": "CC50", "setting": "[9]; read-out: LC50 A-549", "value": 582, "unit": "nM"},
      {"measurement": "GI50", "setting": "[10]", "value": 169, "unit": "nM"},
      {"measurement": "LC50", "setting": "[10]", "value": 554, "unit": "nM"},
      {"measurement": "TGI SK-BR-3", "setting": "[10]", "value": "3.06E−07", "unit": "Molar"},
      {"measurement": "TGI SKOV-3", "setting": "[11]", "value": "4.08E−07", "unit": "Molar"},
      {"measurement": "GI50", "setting": "[11]; read-out: GI50 SKOV-3", "value": 196, "unit": "nM"},
      {"measurement": "CC50", "setting": "[11]; read-out: LC50 SKOV-3", "value": 1490, "unit": "nM"},
      {"measurement": "TGI LN-caP", "setting": "[12]", "value": "2.61E−08", "unit": "Molar"},
      {"measurement": "GI50", "setting": "[12]; read-out: GI50 LN-caP", "value": 14.2, "unit": "nM"},
      {"measurement": "CC50", "setting": "[12]; read-out: LC50 LN-caP", "value": 47.9, "unit": "nM"},
      {"measurement": "GI50", "setting": "[13]", "value": 240, "unit": "nM"},
      {"measurement": "TGI IGROV-ET", "setting": "[13]", "value": "4.88E−07", "unit": "Molar"},
      {"measurement": "CC50", "setting": "[13]; read-out: LC50 IGROV-ET", "value": 2830, "unit": "nM"},
      {"measurement": "TGI H-MEC-1", "setting": "[14]", "value": "2.63E−08", "unit": "Molar"},
      {"measurement": "GI50", "setting": "[14]; read-out: GI50 H-MEC-1", "value": 15.6, "unit": "nM"},
      {"measurement": "CC50 at 48 h", "setting": "[15]", "value": 44.6, "unit": "nM"}
    ]}
  ]
}
